Experiments:
[1] = system: dyskinesias induced by L-DOPA in rats; experiment: Study of dyskinesias induced by L-DOPA (6-OHDA-lesioned dyskinetic rats), score of abnormal and involuntary movements; type: in vivo, rat; conditions: for effect on rats suffering from induced dyskinesia: oral 10 and 30 mg/kg, dose-dependent, statistically significant effectiveness
Excerpt: Principle of the In Vivo Test (Experimental Model with Dyskinetic Rats):
An animal model is produced where the dyskinesia is induced in animals treated with L-Dopa (3-(3,4-dihydroxyphenyl)-L-alanine). First of all in order to cause a reduction in the level of endogenous dopamine at the level of the striatum, lesions are produced in the rats using 6-hydroxydopamine (6-OHDA). Following this injection of 6-OHDA, these animals become sensitive to the side-effects of L-dopa. In fact in order to remedy this endogenous dopamine deficiency, the rats receive an L-Dopa based treatment. […] The dyskinesia thus induced is evaluated by a statistical behaviour test.
In fact the L-Dopa passes through the hematoencephalic barrier with difficulty and therefore it can be decarboxylated at the peripheral level.
The study was carried out on young male rats. The rats are anaesthetized (chloral 400 mg/kg). Then they receive 2 stereotaxic injections of 6 μg of 6-hydroxydopamine in the left striatum using a 10 μl Hamilton microsyringe. The rats receive in fine 12 μg of 6-OHDA dissolved in 4 μl of 0.02% L-ascorbate. Four weeks later the lesion to the locus niger is produced in the rats. In order to quantify this lesion, an indirect measurement is used: the rotations induced by apomorphine (substance test). The animals receive a sub-cutaneous injection of 0.5 mg/kg of apomorphine and the right and left rotations of the animals are measured over 30 minutes. A net rotational asymmetry score is then determined. This score is expressed as the number of complete turns in the test cage/minute in the contralateral direction of the lesion.
Six weeks after the 6-hydroxydopamine (6-OHDA) lesions, the selected rats receive a daily intraperitoneal injection of L-Dopa methylester at a dose of 20 mg/kg and benserazide at a dose of 15 mg/kg. The injections take place from week 6 to week 9. From week 10, the rats receive a more concentrated dose: each day they receive an intraperitoneal injection of L-Dopa methylester at a dose of 25 mg/kg and benserazide at a dose of 15 mg/kg. From week 11, the rats receive two daily injections of L-Dopa methylester at a dose of 15 mg/kg and benserazide at a dose of 15 mg/kg. During week 11, the rats are evaluated 3 times per week for their level of abnormal and involuntary movements in order to determine whether the administered doses are sufficient to cause a dyskinesia in these animals. The rats are observed individually from 30 minutes to 180 minutes after injection of the L-Dopa; they are observed every 30 minutes. The movements which are observed at that time are considered to be dyskinetic movements when they meet the following criteria: • the movements are induced by the L-Dopa; • the movements affect the side of the body in the contralateral direction of the lesion; • the movements are repetitive, involuntary and cannot be attributed to normal behaviour.
The abnormal and involuntary movements are classified in 4 sub-types: • locomotive dyskinesia: increase in locomotion of the side contralateral to the lesion; • axial dystonia: deviation of the posture of the neck and of the upper part of the body; • oromandibular dyskinesia: stereotypical movements of the jaws and protrusion of the tongue; • dyskinesia of the anterior limbs: repetitive and rhythmic jerking of the anterior limbs accompanied by a dystonic posture and/or strong grasping movements of the paws.
For each of these sub-types, the rats are marked on a scale of 0 to 4, knowing that: • 0=no movement, • 1=occasional movements, • 2=frequent movements, • 3=continuous movements but interrupted by a sensory distraction, • 4=continuous, acute movements, not interrupted by a sensory distraction.
The compounds according to the invention are tested in order to determine their ability to modulate the effects of the L-Dopa.

[2] = system: tardive orofacial dyskinesia caused by haloperidol in rats; experiment: Study of tardive dyskinesia in rats treated with a neuroleptic (haloperidol) over a long period, count of tongue protrusions and mastication movements; type: in vivo, rat; conditions: for effect on rats suffering from tardive dyskinesia and tardive orofacial dyskinesia caused by haloperidol: oral 10 and 30 mg/kg, dose-dependent effectiveness
Excerpt: Principle of the In Vivo Test (Experimental Model with Rats): […] dyskinesia is a complication resulting from prolonged treatment with for example neuroleptics. It is characterized by repetitive, involuntary movements of the mouth, face and tongue. Long-term treatment with neuroleptics can lead to oromandibular dyskinesia, in particular it can lead to movements of mastication and protrusion of the tongue in rats. The principle of the test is to quantify the abnormal movements of the animals in a test cage during a determined time window (5 minutes). A neuroleptic, haloperidol (originating from Sigma®), is administered over a long period to rats using an Alzet® osmotic pump. This osmotic pump (reference 2ML4 Alzet®) is filled with a solution of haloperidol at 10 mg/ml. This pump is implanted subcutaneously in rats weighing between 150 g and 160 g. After anaesthesia of the rats with isoflurane, a small incision is made in the skin at the level of the scapulae to allow insertion of the pump. Then the incision is sutured. The pump makes it possible to continuously administer haloperidol to the rats at a dose of 2 mg/kg/day for 28 days. […] Before the treatment (t=0) with the compounds to be tested, the rats are placed individually in plastic test cages. […] Results: The rate of protrusion of the tongue and mastication movements is calculated statistically for each group of rats. […] The results presented were obtained with 8 tested animals.

[3] = 30 mg/kg orally, 120 minutes after the administration of L-Dopa, control (water) 12 (compound 1) and 12.9 (compound 2)
[4] = 30 mg/kg orally, after 180 minutes of treatment, reduced from 11.3 (compound 1) and from 13.8 (compound 2)

CC(C)(C)c1cc(-c2csc(CN)n2)cc(C(C)(C)C)c1O.Cl [Compound 1, 4-[2-(aminomethyl)-1,3-thiazol-4-yl]-2,6-di(tert-butyl)phenol hydrochloride or dihydrochloride]
score of abnormal and involuntary movements (dyskinesia score, maximum 16 points) [1, 3]: 10 points
score of abnormal and involuntary movements (dyskinesia score, maximum 16 points) [1, 4]: 9.6 points
effect on rats suffering from induced dyskinesia [1]: anti-dyskinetic effect
score of chewing movements ([2]; 10 mg/kg orally, counted for 5 minutes, reduced from 30.3): 21
score of chewing movements ([2]; 30 mg/kg orally, counted for 5 minutes, reduced from 35.6): 11.9
effect on rats suffering from tardive dyskinesia and tardive orofacial dyskinesia caused by haloperidol [2]: anti-dyskinetic effect

C[C@@H](N)c1nc(-c2cc(C(C)(C)C)c(O)c(C(C)(C)C)c2)cs1.Cl [Compound 2, 4-{2-[(1R)-1-aminoethyl]-1,3-thiazol-4-yl}-2,6-di-tert-butylphenol hydrochloride]
score of abnormal and involuntary movements (dyskinesia score, maximum 16 points) ([1]; 10 mg/kg orally, after 180 minutes of treatment, reduced from 13): 10.6 points
score of abnormal and involuntary movements (dyskinesia score, maximum 16 points) [1, 3]: 9.7 points
score of abnormal and involuntary movements (dyskinesia score, maximum 16 points) [1, 4]: 9 points
effect on rats suffering from induced dyskinesia [1]: anti-dyskinetic effect
rate of protrusion of the tongue ([2]; 10 mg/kg orally, after 3 hours, counted for 5 minutes, reduced from 11.4): 5
rate of protrusion of the tongue ([2]; 30 mg/kg orally, after 3 hours, counted for 5 minutes, reduced from 15): 6
number of mastication movements ([2]; 30 mg/kg orally, after 3 hours, counted for 5 minutes, reduced from 35.5): 23.7
effect on rats suffering from tardive dyskinesia and tardive orofacial dyskinesia caused by haloperidol [2]: anti-dyskinetic effect
